This note sets out measurements from article PMC5421785, “Citrullination only infrequently impacts peptide binding to HLA class II MHC” (PLoS ONE, 2017).

The structures appear in SMILES notation. Like-named read-outs stand apart in the source and are kept apart here. Square brackets hold non-standard residues; d marks the D form. Peptide text beside a SMILES is read from it. Cit = NC(=O)NCCC[C@H](N)C(=O)O

As a reminder, the IC50 is the point on the concentration scale where inhibition reaches its midpoint.

For assay [1], the target named is T1, HLA-DRB1*01:01 (Homo sapiens, UniProt P01903+P01911, A100R/D57E/F55L/F60I/F76Y/I96L/L162R/M171V/P40L/Q125E/R42F/V115G/Y59C).
T1 construct: EBV transformed homozygous cell lines were used as sources of MHC molecules; endogenous in cells; host or cells: EBV transformed homozygous cell lines
Description: HLA class II peptide binding, inhibition of radiolabeled peptide binding to purified MHC. Particulars: for DRB1*01:01 binding capacity, WT/cit ratio: ratio of WT IC50 to Cit IC50, >1 = citrullination increases binding.

Assay [2] addresses T2, HLA-DRB1*04:01 (Homo sapiens, UniProt P01903+P01911, A100K/A169T/F76Y/I96L/K127E/L162R/M171V/N62H/P40V/Q125Y/R42H/S133A/S149N/S66Y/V115G/V209L/W38E).
T2 construct: EBV transformed homozygous cell lines were used as sources of MHC molecules; endogenous in cells; host or cells: EBV transformed homozygous cell lines
The description is as above. Particulars: for DRB1*04:01 binding capacity, WT/cit ratio: ratio of WT IC50 to Cit IC50, >1 = citrullination increases binding.

Where [3] appears, read: citrullinated 15-mer (X), purified MHC, inhibition of radiolabeled peptide binding, dash = IC50 >40,000 nM, read-out: DRB1*01:01 binding capacity, Cit peptide (IC50 nM).
Setting [4] is: citrullinated 15-mer (X), purified MHC, inhibition of radiolabeled peptide binding, dash = IC50 >40,000 nM, read-out: DRB1*04:01 binding capacity, Cit peptide (IC50 nM).
[5] abbreviates: citrullinated 15-mer peptide (X = citrulline), purified HLA-DRB1*01:01, read-out: DRB1*01:01 binding capacity, Cit peptide (IC50 nM).
Where [6] appears, read: citrullinated 15-mer peptide (X = citrulline), purified HLA-DRB1*04:01, read-out: DRB1*04:01 binding capacity, Cit peptide (IC50 nM).

`CC(C)[C@H](NC(=O)[C@H](Cc1ccc(O)cc1)NC(=O)[C@H](CO)NC(=O)[C@H](CCCNC(N)=O)NC(=O)[C@H](CO)NC(=O)[C@H](CO)NC(=O)[C@H](CO)NC(=O)[C@@H]1CCCN1C(=O)[C@H](CCCNC(=N)N)NC(=O)[C@H](CO)NC(=O)[C@H](C)N)C(=O)N[C@H](C(=O)N[C@H](C(=O)N[C@@H](CO)C(=O)N[C@H](C(=O)O)[C@@H](C)O)[C@@H](C)O)[C@@H](C)O` [ASRPSSSXSYVTTST] (H-ASRPSSS[Cit]SYVTTST-OH): the 50% inhibitory concentration (IC50) in assay [1] (setting [3]) is 12900 nM; in assay [2] (setting [4]), 1630 nM.

`CC(C)[C@H](NC(=O)[C@H](Cc1ccc(O)cc1)NC(=O)[C@H](CO)NC(=O)[C@H](CCCNC(=N)N)NC(=O)[C@H](CO)NC(=O)[C@H](CO)NC(=O)[C@H](CO)NC(=O)[C@@H]1CCCN1C(=O)[C@H](CCCNC(N)=O)NC(=O)[C@H](CO)NC(=O)[C@H](C)N)C(=O)N[C@H](C(=O)N[C@H](C(=O)N[C@@H](CO)C(=O)N[C@H](C(=O)O)[C@@H](C)O)[C@@H](C)O)[C@@H](C)O` [ASXPSSSRSYVTTST] (H-AS[Cit]PSSSRSYVTTST-OH): the IC50 in assay [1] (setting [3]) amounted to 5560 nM; in assay [2] (setting [4]), 757 nM.

On to `C[C@H](N)C(=O)N[C@@H](CCCNC(N)=O)C(=O)NCC(=O)N[C@@H](C)C(=O)N[C@@H](CCC(N)=O)C(=O)NCC(=O)N1CCC[C@H]1C(=O)N1CCC[C@H]1C(=O)NCC(=O)N[C@@H](C)C(=O)N[C@H](C(=O)NCC(=O)N[C@@H](Cc1ccccc1)C(=O)N1CCC[C@H]1C(=O)NCC(=O)O)[C@@H](C)O` [AXGAQGPPGATGFPG] (H-A[Cit]GAQGPPGATGFPG-OH; N-terminus and C-terminus assumed), for which the IC50 in assay [1] (setting [5]) and in assay [2] (setting [6]) was greater than 40000 nM in each case. In addition, the “DRB1*01:01 binding capacity, WT/cit ratio” value in assay [1] came to 0.7. Moreover, the “DRB1*04:01 binding capacity, WT/cit ratio” value in assay [2] was determined as 1.0.

As to `CC(C)C[C@H](NC(=O)[C@H](CCCNC(N)=O)NC(=O)[C@H](C)N)C(=O)N[C@@H](CC(=O)O)C(=O)N[C@@H](CC(C)C)C(=O)N[C@@H](CCC(=O)O)C(=O)N[C@@H](CCCNC(=N)N)C(=O)N[C@@H](CCCCN)C(=O)N[C@H](C(=O)N[C@@H](CCC(=O)O)C(=O)N[C@@H](CO)C(=O)N[C@@H](CC(C)C)C(=O)N[C@@H](CCC(N)=O)C(=O)N[C@@H](CCC(=O)O)C(=O)N[C@@H](CCC(=O)O)C(=O)O)C(C)C` [AXLDLERKVESLQEE] (H-A[Cit]LDLERKVESLQEE-OH), the IC50 in assay [1] (setting [3]) stood at 5290 nM; in assay [2] (setting [4]), 9150 nM.

Take `CC[C@H](C)[C@H](NC(=O)CNC(=O)[C@H](CCCNC(=N)N)NC(=O)[C@H](CCC(N)=O)NC(=O)CNC(=O)[C@H](C)NC(=O)[C@H](CC(C)C)NC(=O)CNC(=O)[C@H](CCC(N)=O)NC(=O)[C@@H]1CCCN1C(=O)CNC(=O)[C@@H]1CCCN1)C(=O)N[C@H](C(=O)NCC(=O)N[C@@H](CC(C)C)C(=O)O)C(C)C` [Collagen 971 WT]: the IC50 in assay [1] (wild-type (unmodified Arg) 15-mer peptide, purified HLA-DRB1*01:01, read-out: DRB1*01:01 binding capacity, WT peptide (IC50 nM)) turned out to be 7.9 nM; in assay [2] (wild-type (unmodified Arg) 15-mer peptide, purified HLA-DRB1*04:01, read-out: DRB1*04:01 binding capacity, WT peptide (IC50 nM)), 7160 nM.

As for `CSCC[C@H](NC(=O)[C@H](CCC(N)=O)NC(=O)[C@H](CCCNC(=N)N)NC(=O)[C@H](CCC(=O)O)NC(=O)[C@H](CC(C)C)NC(=O)[C@H](CO)NC(=O)[C@H](CCC(=O)O)NC(=O)[C@H](CC(N)=O)NC(=O)[C@@H](NC(=O)CNC(=O)[C@H](CCCCN)NC(=O)[C@H](CC(C)C)NC(=O)[C@H](C)NC(=O)[C@@H](N)CC(=O)O)[C@@H](C)O)C(=O)N[C@@H](CCCNC(N)=O)C(=O)O` [DALKGTNESLERQMX] (H-DALKGTNESLERQM[Cit]-OH), the IC50 amounted to 24200 nM in assay [1] (setting [5]) and 17500 nM in assay [2] (setting [6]).

With `CSCC[C@H](NC(=O)[C@H](CCC(N)=O)NC(=O)[C@H](CCCNC(N)=O)NC(=O)[C@H](CCC(=O)O)NC(=O)[C@H](CC(C)C)NC(=O)[C@H](CO)NC(=O)[C@H](CCC(=O)O)NC(=O)[C@H](CC(N)=O)NC(=O)[C@@H](NC(=O)CNC(=O)[C@H](CCCCN)NC(=O)[C@H](CC(C)C)NC(=O)[C@H](C)NC(=O)[C@@H](N)CC(=O)O)[C@@H](C)O)C(=O)N[C@@H](CCCNC(=N)N)C(=O)O` [DALKGTNESLEXQMR] (H-DALKGTNESLE[Cit]QMR-OH), the IC50 in assay [1] (setting [5]) is greater than 40000 nM; in assay [2] (setting [6]), 16600 nM.

On to `CC[C@H](C)[C@H](NC(=O)[C@H](CO)NC(=O)[C@H](CCC(=O)O)NC(=O)[C@@H](NC(=O)[C@H](CCC(N)=O)NC(=O)[C@H](CC(N)=O)NC(=O)[C@H](CC(N)=O)NC(=O)[C@H](CC(C)C)NC(=O)[C@H](CO)NC(=O)[C@H](CCCCN)NC(=O)[C@H](CC(C)C)NC(=O)[C@@H](NC(=O)[C@H](C)NC(=O)[C@@H](N)CC(=O)O)[C@@H](C)O)[C@@H](C)CC)C(=O)N[C@@H](CCCNC(N)=O)C(=O)O` [DATLKSLNNQIESIX] (H-DATLKSLNNQIESI[Cit]-OH), for which the IC50 in assay [1] (citrullinated peptide as listed (X at Cit position), read-out: DRB1*01:01 binding capacity Cit peptide (IC50 nM)) amounted to 9.4 nM; in assay [2] (citrullinated peptide as listed (X at Cit position), read-out: DRB1*04:01 binding capacity Cit peptide (IC50 nM)) it was 1390 nM.

As for `CC(C)C[C@H](NC(=O)CNC(=O)[C@@H](N)CC(=O)O)C(=O)N[C@@H](C)C(=O)NCC(=O)N1CCC[C@H]1C(=O)N[C@@H](CCCCN)C(=O)NCC(=O)N[C@@H](C)C(=O)N1CCC[C@H]1C(=O)NCC(=O)N[C@@H](CCC(=O)O)C(=O)N[C@@H](CCCNC(N)=O)C(=O)NCC(=O)N1CCC[C@H]1C(=O)O` [DGLAGPKGAPGEXGP] (H-DGLAGPKGAPGE[Cit]GP-OH), the figures for the IC50 in assay [1] (setting [5]) and in assay [2] (setting [6]) were 1120 nM and greater than 40000 nM, respectively.

For `C[C@H](NC(=O)CNC(=O)[C@H](CCCCN)NC(=O)[C@@H]1CCCN1C(=O)CNC(=O)[C@@H](N)CC(=O)O)C(=O)N[C@@H](CCCNC(=N)N)C(=O)NCC(=O)N[C@@H](CC(=O)O)C(=O)N[C@@H](CO)C(=O)NCC(=O)N1CCC[C@H]1C(=O)N1CCC[C@H]1C(=O)NCC(=O)N[C@@H](CCCNC(N)=O)C(=O)O` [DGPKGARGDSGPPGX] (H-DGPKGARGDSGPPG[Cit]-OH; N-terminus and C-terminus assumed), the IC50 in assay [1] (setting [5]) and in assay [2] (setting [6]) was greater than 40000 nM each time. Also, the “DRB1*04:01 binding capacity, WT/cit ratio” value in assay [2] worked out at 0.548.

For the compound `C[C@H](NC(=O)CNC(=O)[C@H](CCCCN)NC(=O)[C@@H]1CCCN1C(=O)CNC(=O)[C@@H](N)CC(=O)O)C(=O)N[C@@H](CCCNC(N)=O)C(=O)NCC(=O)N[C@@H](CC(=O)O)C(=O)N[C@@H](CO)C(=O)NCC(=O)N1CCC[C@H]1C(=O)N1CCC[C@H]1C(=O)NCC(=O)N[C@@H](CCCNC(=N)N)C(=O)O` [DGPKGAXGDSGPPGR] (H-DGPKGA[Cit]GDSGPPGR-OH; N-terminus and C-terminus assumed), the IC50 in assay [1] (setting [5]) and in assay [2] (setting [6]) was greater than 40000 nM each time. Further, the “DRB1*01:01 binding capacity, WT/cit ratio” value in assay [1] is on record as 0.533. For the same compound, the “DRB1*04:01 binding capacity, WT/cit ratio” value in assay [2] is recorded as 0.548.

`CC[C@H](C)[C@H](NC(=O)[C@@H](N)CC(=O)O)C(=O)N[C@@H](CCSC)C(=O)N[C@@H](CCCNC(=N)N)C(=O)N[C@@H](CC(C)C)C(=O)N[C@@H](CCCNC(N)=O)C(=O)N[C@@H](CCC(=O)O)C(=O)N[C@@H](CCCCN)C(=O)N[C@@H](CC(C)C)C(=O)N[C@@H](CCC(N)=O)C(=O)N[C@@H](CCC(=O)O)C(=O)N[C@@H](CCC(=O)O)C(=O)N[C@@H](CCSC)C(=O)N[C@@H](CC(C)C)C(=O)N[C@@H](CCC(N)=O)C(=O)O` [DIMRLXEKLQEEMLQ] (H-DIMRL[Cit]EKLQEEMLQ-OH): the IC50 in assay [1] (setting [3]) is 729 nM; in assay [2] (setting [4]), greater than 40000 nM.

As to `CC[C@H](C)[C@H](NC(=O)[C@@H](N)CC(=O)O)C(=O)N[C@@H](CCSC)C(=O)N[C@@H](CCCNC(N)=O)C(=O)N[C@@H](CC(C)C)C(=O)N[C@@H](CCCNC(=N)N)C(=O)N[C@@H](CCC(=O)O)C(=O)N[C@@H](CCCCN)C(=O)N[C@@H](CC(C)C)C(=O)N[C@@H](CCC(N)=O)C(=O)N[C@@H](CCC(=O)O)C(=O)N[C@@H](CCC(=O)O)C(=O)N[C@@H](CCSC)C(=O)N[C@@H](CC(C)C)C(=O)N[C@@H](CCC(N)=O)C(=O)O` [DIMXLREKLQEEMLQ] (H-DIM[Cit]LREKLQEEMLQ-OH), the IC50 in assay [1] (setting [3]) is 983 nM; in assay [2] (setting [4]), greater than 40000 nM.

For `CC(C)C[C@H](NC(=O)[C@H](CO)NC(=O)[C@H](C)NC(=O)[C@H](CC(N)=O)NC(=O)[C@@H](N)CC(=O)O)C(=O)N[C@@H](C)C(=O)N[C@@H](CCCNC(=N)N)C(=O)N[C@@H](CC(C)C)C(=O)N[C@@H](CC(=O)O)C(=O)N[C@@H](CC(C)C)C(=O)N[C@@H](CCC(=O)O)C(=O)N[C@@H](CCCNC(N)=O)C(=O)N[C@@H](CCCCN)C(=O)N[C@H](C(=O)N[C@@H](CCC(=O)O)C(=O)O)C(C)C` [DNASLARLDLEXKVE] (H-DNASLARLDLE[Cit]KVE-OH), the concentration for half-maximal inhibition (IC50) in assay [1] (setting [3]) was 10900 nM; in assay [2] (setting [4]), greater than 40000 nM.

Turning to `CC(C)C[C@H](NC(=O)[C@H](CO)NC(=O)[C@H](C)NC(=O)[C@H](CC(N)=O)NC(=O)[C@@H](N)CC(=O)O)C(=O)N[C@@H](C)C(=O)N[C@@H](CCCNC(N)=O)C(=O)N[C@@H](CC(C)C)C(=O)N[C@@H](CC(=O)O)C(=O)N[C@@H](CC(C)C)C(=O)N[C@@H](CCC(=O)O)C(=O)N[C@@H](CCCNC(=N)N)C(=O)N[C@@H](CCCCN)C(=O)N[C@H](C(=O)N[C@@H](CCC(=O)O)C(=O)O)C(C)C` [DNASLAXLDLERKVE] (H-DNASLA[Cit]LDLERKVE-OH), the results for the IC50 in assay [1] (setting [3]) and in assay [2] (setting [4]) were 16300 nM and greater than 40000 nM, respectively.
